How the values were obtained:
[1] = molecular target: Serine/threonine-protein kinase pim-1 (Homo sapiens, UniProt P11309); assay: Percentage PIM1 activity remaining in the presence of 25uM inhibitor; settings: filed as antagonist
[2] = molecular target: Dual specificity mitogen-activated protein kinase kinase 1 (Homo sapiens) (UniProt Q02750); assay: Percentage MKK1 activity remaining in the presence of 25uM inhibitor
[3] = molecular target: T1, Serine/threonine-protein kinase Nek2 (Homo sapiens) (UniProt P51955); assay: Percentage NEK2a activity remaining in the presence of 25uM inhibitor
T1 sequence (whole entry): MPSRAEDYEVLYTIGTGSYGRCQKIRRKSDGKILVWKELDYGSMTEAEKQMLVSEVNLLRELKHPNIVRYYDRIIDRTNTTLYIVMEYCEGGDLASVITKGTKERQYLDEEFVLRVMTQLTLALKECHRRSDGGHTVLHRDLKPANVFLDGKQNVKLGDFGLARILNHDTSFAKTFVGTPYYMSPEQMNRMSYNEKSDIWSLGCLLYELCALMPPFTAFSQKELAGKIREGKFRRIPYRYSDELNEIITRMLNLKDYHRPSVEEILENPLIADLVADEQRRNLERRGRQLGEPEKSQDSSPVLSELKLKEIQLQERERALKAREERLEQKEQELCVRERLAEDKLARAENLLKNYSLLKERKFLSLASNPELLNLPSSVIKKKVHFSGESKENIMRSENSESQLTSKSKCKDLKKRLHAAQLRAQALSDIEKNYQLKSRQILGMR

[4] = molecular target: Mitogen-activated protein kinase 11 (Homo sapiens) (UniProt Q15759); assay: Percentage p38beta activity remaining in the presence of 25uM inhibitor
Sequence of Mitogen-activated protein kinase 11 (Homo sapiens) (Q15759 whole entry): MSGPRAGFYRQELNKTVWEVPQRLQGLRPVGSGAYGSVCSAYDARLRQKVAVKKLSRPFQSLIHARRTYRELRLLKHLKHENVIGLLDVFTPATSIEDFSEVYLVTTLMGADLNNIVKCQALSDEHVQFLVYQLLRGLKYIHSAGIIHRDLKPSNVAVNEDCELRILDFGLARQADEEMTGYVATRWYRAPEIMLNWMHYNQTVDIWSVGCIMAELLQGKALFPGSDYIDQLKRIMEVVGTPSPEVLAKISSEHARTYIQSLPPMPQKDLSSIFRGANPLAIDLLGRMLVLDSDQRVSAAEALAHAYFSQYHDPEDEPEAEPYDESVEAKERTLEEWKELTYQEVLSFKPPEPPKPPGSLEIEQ

[5] = molecular target: T2, Inhibitor of nuclear factor kappa-B kinase subunit beta (Homo sapiens) (UniProt O14920); assay: Percentage IKK-beta activity remaining in the presence of 25uM inhibitor
T2 sequence (whole entry): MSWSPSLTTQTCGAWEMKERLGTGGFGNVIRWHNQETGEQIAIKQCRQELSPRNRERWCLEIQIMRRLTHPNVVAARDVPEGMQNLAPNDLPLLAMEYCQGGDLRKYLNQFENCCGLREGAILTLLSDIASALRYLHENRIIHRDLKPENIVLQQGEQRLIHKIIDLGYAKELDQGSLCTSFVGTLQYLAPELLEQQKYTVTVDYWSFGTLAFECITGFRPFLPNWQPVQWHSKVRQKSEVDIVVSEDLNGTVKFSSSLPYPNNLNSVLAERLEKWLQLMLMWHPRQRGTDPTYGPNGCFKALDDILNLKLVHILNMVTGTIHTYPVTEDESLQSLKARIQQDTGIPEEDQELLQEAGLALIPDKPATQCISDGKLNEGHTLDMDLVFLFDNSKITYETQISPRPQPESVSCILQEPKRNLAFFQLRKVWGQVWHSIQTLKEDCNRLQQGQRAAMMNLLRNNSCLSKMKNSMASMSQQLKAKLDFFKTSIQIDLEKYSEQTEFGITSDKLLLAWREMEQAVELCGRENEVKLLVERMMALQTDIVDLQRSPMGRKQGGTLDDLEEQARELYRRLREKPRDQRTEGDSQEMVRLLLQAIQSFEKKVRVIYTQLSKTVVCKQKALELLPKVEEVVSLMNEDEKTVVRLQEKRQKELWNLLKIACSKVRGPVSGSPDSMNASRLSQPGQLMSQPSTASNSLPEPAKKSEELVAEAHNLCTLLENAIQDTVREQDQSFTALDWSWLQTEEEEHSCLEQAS

[6] = molecular target: Serine/threonine-protein kinase pim-3 (Homo sapiens, UniProt Q86V86); assay: Percentage PIM3 activity remaining in the presence of 25uM inhibitor; settings: filed as antagonist
[7] = molecular target: T3, Dual specificity tyrosine-phosphorylation-regulated kinase 3 (Homo sapiens) (UniProt O43781); assay: Percentage DYRK3 activity remaining in the presence of 25uM inhibitor
T3 sequence (whole entry): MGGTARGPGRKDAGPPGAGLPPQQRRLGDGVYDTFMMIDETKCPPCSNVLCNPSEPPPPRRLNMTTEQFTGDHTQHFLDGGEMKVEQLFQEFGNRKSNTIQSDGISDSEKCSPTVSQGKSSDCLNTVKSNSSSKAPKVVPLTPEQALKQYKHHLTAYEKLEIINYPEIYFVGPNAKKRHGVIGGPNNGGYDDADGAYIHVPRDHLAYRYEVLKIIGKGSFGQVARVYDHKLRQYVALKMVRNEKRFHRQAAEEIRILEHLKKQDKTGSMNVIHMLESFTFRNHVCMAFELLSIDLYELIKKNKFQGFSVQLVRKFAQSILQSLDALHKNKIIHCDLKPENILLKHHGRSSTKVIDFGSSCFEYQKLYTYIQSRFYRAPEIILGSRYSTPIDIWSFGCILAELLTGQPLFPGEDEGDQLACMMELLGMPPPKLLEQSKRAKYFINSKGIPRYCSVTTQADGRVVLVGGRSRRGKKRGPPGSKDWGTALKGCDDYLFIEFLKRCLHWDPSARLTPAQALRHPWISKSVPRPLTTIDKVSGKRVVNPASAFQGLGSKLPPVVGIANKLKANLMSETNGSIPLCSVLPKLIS

[8] = molecular target: Proto-oncogene tyrosine-protein kinase Src (Gallus gallus, UniProt P00523); assay: Inhibition of Src in the presence of 50uM ATP
[9] = molecular target: MAP/microtubule affinity-regulating kinase 3 (Homo sapiens) (UniProt P27448); assay: Percentage MARK3 activity remaining in the presence of 0.01uM inhibitor; settings: filed as antagonist
Sequence of MAP/microtubule affinity-regulating kinase 3 (Homo sapiens) (P27448 whole entry, looked up): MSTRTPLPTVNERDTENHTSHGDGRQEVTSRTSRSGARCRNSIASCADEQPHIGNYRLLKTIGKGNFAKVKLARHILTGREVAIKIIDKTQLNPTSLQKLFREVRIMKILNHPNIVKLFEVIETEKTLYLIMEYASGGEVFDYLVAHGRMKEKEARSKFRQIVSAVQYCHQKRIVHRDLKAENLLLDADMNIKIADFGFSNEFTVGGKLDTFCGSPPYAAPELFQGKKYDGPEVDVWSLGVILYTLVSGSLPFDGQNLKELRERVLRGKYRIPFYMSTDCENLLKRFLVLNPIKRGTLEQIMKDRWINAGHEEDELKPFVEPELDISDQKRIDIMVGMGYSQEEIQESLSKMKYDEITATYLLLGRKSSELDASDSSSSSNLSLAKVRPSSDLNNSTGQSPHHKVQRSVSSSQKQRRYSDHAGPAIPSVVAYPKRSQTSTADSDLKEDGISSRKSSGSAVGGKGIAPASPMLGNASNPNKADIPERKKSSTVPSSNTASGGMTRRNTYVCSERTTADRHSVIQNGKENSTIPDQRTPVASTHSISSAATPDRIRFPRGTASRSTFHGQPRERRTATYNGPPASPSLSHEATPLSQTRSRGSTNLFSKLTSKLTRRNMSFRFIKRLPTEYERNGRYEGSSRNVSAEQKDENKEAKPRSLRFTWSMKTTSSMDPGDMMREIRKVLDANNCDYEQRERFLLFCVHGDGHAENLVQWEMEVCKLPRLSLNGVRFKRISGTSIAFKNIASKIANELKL

[10] = molecular target: Mitogen-activated protein kinase 8 (Homo sapiens, UniProt P45983); assay: Percentage JNK1 activity remaining in the presence of 2uM inhibitor
Sequence of Mitogen-activated protein kinase 8 (P45983 whole entry): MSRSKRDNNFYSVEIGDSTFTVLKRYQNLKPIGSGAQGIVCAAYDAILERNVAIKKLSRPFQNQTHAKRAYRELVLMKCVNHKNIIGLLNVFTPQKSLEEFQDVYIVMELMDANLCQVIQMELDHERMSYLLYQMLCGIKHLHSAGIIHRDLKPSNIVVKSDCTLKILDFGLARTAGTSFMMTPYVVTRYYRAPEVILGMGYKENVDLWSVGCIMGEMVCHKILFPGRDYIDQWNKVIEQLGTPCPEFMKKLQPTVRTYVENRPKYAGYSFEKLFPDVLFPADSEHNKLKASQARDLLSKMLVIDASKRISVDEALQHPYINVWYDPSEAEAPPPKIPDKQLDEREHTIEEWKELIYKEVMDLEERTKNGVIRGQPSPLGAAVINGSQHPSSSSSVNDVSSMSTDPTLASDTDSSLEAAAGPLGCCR

[11] = molecular target: Cyclin-dependent kinase 2/cyclin A (Homo sapiens) (UniProt P24941+P20248+P78396); assay: Percentage CDK2-cyclinA activity remaining in the presence of 2uM inhibitor; assay type: protein-complex assay
[12] = molecular target: T4, Protein kinase C zeta type (Homo sapiens) (UniProt Q05513); assay: Percentage PKCzeta activity remaining in the presence of 2uM inhibitor
T4 sequence (whole entry): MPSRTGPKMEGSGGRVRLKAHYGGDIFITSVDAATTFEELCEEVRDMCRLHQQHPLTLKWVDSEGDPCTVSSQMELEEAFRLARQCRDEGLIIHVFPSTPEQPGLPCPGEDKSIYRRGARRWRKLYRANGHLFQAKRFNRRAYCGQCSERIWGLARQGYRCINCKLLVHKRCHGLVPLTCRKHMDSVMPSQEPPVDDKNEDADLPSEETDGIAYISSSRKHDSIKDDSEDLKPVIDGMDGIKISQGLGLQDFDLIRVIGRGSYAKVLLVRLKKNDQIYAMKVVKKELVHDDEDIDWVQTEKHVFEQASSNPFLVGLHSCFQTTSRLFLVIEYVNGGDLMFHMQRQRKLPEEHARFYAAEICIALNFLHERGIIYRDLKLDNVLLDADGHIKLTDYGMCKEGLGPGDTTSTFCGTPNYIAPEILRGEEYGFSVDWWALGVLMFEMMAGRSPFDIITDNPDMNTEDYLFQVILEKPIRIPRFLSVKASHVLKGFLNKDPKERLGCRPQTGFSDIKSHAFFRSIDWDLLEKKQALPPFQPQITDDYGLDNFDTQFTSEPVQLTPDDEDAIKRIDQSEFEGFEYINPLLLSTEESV

Sequence of Serine/threonine-protein kinase pim-1 (P11309 whole entry, looked up): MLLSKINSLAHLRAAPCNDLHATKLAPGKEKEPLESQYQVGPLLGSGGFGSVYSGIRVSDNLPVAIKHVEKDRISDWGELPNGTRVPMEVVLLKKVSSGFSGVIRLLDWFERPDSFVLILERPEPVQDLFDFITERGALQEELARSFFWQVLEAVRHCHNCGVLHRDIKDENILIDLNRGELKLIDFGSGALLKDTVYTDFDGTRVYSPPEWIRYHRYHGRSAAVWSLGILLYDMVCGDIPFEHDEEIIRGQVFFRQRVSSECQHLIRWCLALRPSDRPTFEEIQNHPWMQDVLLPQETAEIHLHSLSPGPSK
Sequence of Dual specificity mitogen-activated protein kinase kinase 1 (Homo sapiens) (Q02750 whole entry): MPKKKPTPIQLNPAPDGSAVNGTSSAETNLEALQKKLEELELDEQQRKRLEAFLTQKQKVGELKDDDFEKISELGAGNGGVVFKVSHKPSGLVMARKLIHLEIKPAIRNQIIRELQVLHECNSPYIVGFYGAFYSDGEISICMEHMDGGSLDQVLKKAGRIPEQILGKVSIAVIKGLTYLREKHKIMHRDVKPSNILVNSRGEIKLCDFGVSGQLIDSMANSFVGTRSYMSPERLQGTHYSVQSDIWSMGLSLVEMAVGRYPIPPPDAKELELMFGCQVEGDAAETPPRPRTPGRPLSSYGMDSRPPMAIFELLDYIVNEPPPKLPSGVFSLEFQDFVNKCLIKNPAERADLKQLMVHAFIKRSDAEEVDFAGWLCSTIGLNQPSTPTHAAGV

In the case of NCCNS(=O)(=O)c1ccc(Cl)c2ccncc12, the Activity [1] is reported as 28%, the Activity [2] is reported as 76% and the Activity [3] is reported as 85%. For the same compound, the Activity [4] was 101%, the Activity [5] was 87% and the Activity [6] was 28%. It also gave an Activity ([7]; filed as antagonist) of 46%.

COc1cc(OC)c(/C=C2/C(=O)Nc3ccccc32)c(OC)c1 gave an Activity [1] of 43%, an Activity [2] of 86% and an Activity [3] of 75%. It also gave an Activity [4] of 97%, an Activity [5] of 90% and an Activity [6] of 41%. It also gave an Activity [7] of 89%.

Cc1ccc(-c2c(C(=O)CF)n(CCCO)c3ncnc(N)c23)cc1 was tested, and the IC50 [8] was 560 nM (antagonist).

Compound O=C(NCCCNc1nc(Nc2cccc(NC(=O)N3CCCC3)c2)ncc1I)c1cccs1 has an Activity [9] of 12%.

Compound Cn1cc(C2=C(c3ccc(Cl)cc3Cl)C(=O)NC2=O)c2ccccc21 has an Activity [10] of 106%, an Activity [11] of 52% and an Activity [12] of 81%.

For CN[C@@H]1C[C@H]2O[C@@](C)([C@@H]1OC)n1c3ccccc3c3c4c(c5c6ccccc6n2c5c31)C(=O)N[C@H]4O (stereo in doubt), the Activity [9] was 6%.

From ChEMBL document CHEMBL1150976, “The selectivity of protein kinase inhibitors: a further update” (Biochem J, 2007)
